Results taken from patent US5036097A, “Phenylbutyl nitrone compositions and methods for prevention of gastric ulceration” (Oklahoma Medical Research Foundation, priority 1990, dated 1991).

System: piroxicam-induced gastric ulcers
Assay: suppression of piroxicam-induced gastric ulcers by interventions (PBN, free radical scavengers, ascorbate)
Type: in vivo, rat (male Sprague-Dawley)
Experimental: FIG. 2 is a graph of % control ulceration from piroxicam versus the % ulceration in the presence of free radical scavengers. The […] scavenger dimethylthiourea (DMTU, 500 mg/kg i.p.) was given 24 hours and 1 hour before piroxicam. […] The antioxidant butylated hydroxytoluene (BHT, 25 mg/kg/day i.p. in corn oil) was given for three days before and again 1 hour before piroxicam. The % control ulceration is determined by averaging the ratios of cm^2 ulceration in control stomachs from rats given piroxicam alone, and multiplying×100. +P< 0.01 compared to piroxicam alone.
Male Sprague-Dawley rats (Charles River, Wilmington, Mass.) weighing 300-325 g were housed individually in wire bottomed cages to prevent ingestion of hair and feces. Animals were maintained without food for 48 hours and without water for 24 hours prior to each experiment. Piroxicam or aspirin and other NSAIDS were suspended in a vehicle of 1% carboxymethylcellulose, 0.1% Tween 80 and 0.15 M HCl, and administered in a volume of 1 ml on the morning of study by oral gavage using an 18 gauge curved blunt needle (Popper and Sons, New Hyde Park, N.Y.). One ml of vehicle alone was administered for control experiments. HCl was added to the vehicle to insure an acid environment in the stomach in all studies. […] Four hours after the administration of NSAID or vehicle, rats were euthanized with sodium pentobarbital (100 mg/kg IP), and the surface area of ulceration per stomach was quantitated using morphometric techniques. Stomachs were removed, the lumen was exposed by an incision along the radius of greater curvature, and the stomach was washed in phosphate buffered saline. The luminal surface was laid out on a flat surface with gross folds removed by gentle distension. The percentage of surface involved with submucosal hemorrhage was then determined by point counting, as described by Weibel, E. R. Stereological Methods: Practical Methods for Biological Morphometry. Academic Press, New York 1980. This was done by tabulation of the percentage of points over ulcerations using a point counting eyepiece graticle (16×16 points in a square format). At the 12X magnification used on the Wild dissecting microscope (Wild-Heerbrugg, Basel, Switzerland), the graticle covered a 1 cm^2 area of the surface. Four to five non-overlapping sampling sites were taken to fully cover the exposed surface. To determine the total luminal surface area, the outline of the outer boundary of the stomach was traced using a transparent acetate sheet, and the area was determined from planimetry. The surface area of ulcerated regions per stomach was then determined by multiplying the surface density of ulceration regions by the luminal surface area of the stomach.
Differences in total luminal surface area in cm^2, surface area of ulcerated regions per stomach and biochemical analyses between each treatment intervention and its corresponding untreated control group are compared using the Mann-Whitney U Test, Dixon, W. J., Massey, F. J., Jr. Introduction to statistical methods, 4th edition. (New York: McGraw Hill, 1983). […] In vitro studies are compared using the Student's unpaired T-test, Dixon, W. J., Massey, F. J., Jr. Introduction to statistical methods, 4th edition. (New York: McGraw Hill, 1983). Values are expressed as mean±SEM. Significance is assumed when P<0.05.
In each experiment, the surface area of gastric ulceration produced by piroxicam in 15 treated rats was compared to that in 15 rats of the same age and size that were fasted simultaneously but which received no intervention. Phenylbutyl nitrone (30 mg/kg) was given orally in water 1 hour before piroxicam and also added to vehicle when piroxicam was administered. When intervention were given with piroxicam, the pH of the final mixture was adjusted if necessary to equal that of piroxicam and vehicle alone.

For `CN1C(C(=O)Nc2ccccn2)=C(O)c2ccccc2S1(=O)=O` [piroxicam], the “ulceration (ascorbate experiment)” value (ascorbate-treated stomachs (with piroxicam) vs piroxicam alone, P<0.001) was 0.031±0.009 cm^2 and the ulcerations/unit area (piroxicam 23 mg/kg only, or plus PBN 30 mg/kg orally 1 hour before and with piroxicam, p<0.0052) was 0.229±0.145 ulcerations/unit area.
